# pEC50: −log10 of the molar value.
# Tests used:
# HIV-1 pNL43 [1] = test: Viral rebound after termination of treatment, chronically infected HeLa-CD4 cells; format: cell-based; settings: up to 27 days after stop
# Description: Total RNA was extracted and reverse transcribed with random hexamer primers. The viral mRNA copies were quantified by qPCR and normalized with GAPDH mRNA. Viral mRNA output from untreated cells was assigned as 1. RNA extracts were used in the qPCR as negative control for the presence of genomic DNA contamination, 0.1% of the amplification of the cDNA samples is due to genomic DNA. The error represents a covariance of less than 5%.
# FIG. 4B: Same as in FIG. 4A however the treatment was stopped for 27 days before harvest of the cells.
# HIV-1 pNL43 [2] = test: HIV-1 replication in PHA/IL-2 stimulated human PBMCs, p24 ELISA; format: cell-based
# Protocol: Freshly isolated uninfected human PBMCs were stimulated with PHA for two days, washed, and grown from then on in IL-2 alone. […] Antigen p24 was measured 5 days post infection using a sandwich ELISA kit.
# To isolate PBMCs, 24 ml of total blood diluted two fold in RPMI or PBS were carefully layered over 12 ml of Ficoll-paque and centrifuged at 2000 rpm for 20 min (brakes off). Resultant layers are approximately from top to bottom: plasma-platelets-PBMC-Ficoll-red blood cells (with granulocytes). Most of the plasma was pipetted off and discarded. The buffy coat with PBMC's was carefully removed from 3 large (50 ml) tubes and transferred to a new 50 ml tube. The remaining Ficoll and red blood cells were discarded in closed tubes. Enough PBS was added to the PBMCs to make up 50 ml and centrifuged at 1200 rpm for 10 min, brakes on. The supernatant was decanted and the pellet was loosened and washed twice with PBS. Washed pellet was recovered in 30 ml of RPMI 1640 supplemented with 10% serum, 1% Penicillin-streptomycin and mixed well. PBMCs were counted and plated at 1×10^6 cells/ml. To activate the PBMCs, PHA (phytohaemagglutinin) was added at 3 μg/ml. Two to three days later add Interleukin 2 (IL2) at 3×10^−3 μg/ml.
# PHA activated PBMCs were centrifuged and recovered at 6×10^6 cells in 3 ml complete RPMI. Then 3 ml of viral supernatant was added and incubated for 4 h at 37° C. After this period, cells were centrifuged, washed 3 times with PBS and recovered in 3 ml complete RPMI. PBMCs were plated at 0.5 ml per well in a 6-well plate, and 0.5 ml media with DMSO control or anti-viral control at 2× final concentration was added. IL-2 was added at 3×10^−3 μg/ml. Supernatant was recovered for p24 assay every 3-4 days post infection. Cells were split at 1×10^6 cell per ml every 5-7 days.
# HIV-1 transcription is intimately linked to T-cell activation due to shared motifs between the HIV-LTR and the regulatory regions in induced genes, namely NF-κB. A large variety of T cell stimuli activate NF-κB, including PHA, IL-2 and tumor necrosis factor alpha (TNF-α).
# HIV = test: Viral RNA release from CD4+ T cells of aviremic (HAART) subjects, ultrasensitive RT-PCR; format: cell-based, human
# Protocol: All patients provided written informed consent, according to the guidelines of the ethics committee of the Oregon Health and Science University. […] Viral production was measured in the supernatant by a sensitive in-house ELISA specific for the viral capsid protein, p24. […] Viral production was measured by quantification of viral particle-associated RNA by ultra-sensitive two-step quantitative real-time reverse transcription-PCR (RT-qPCR). Briefly, viral particles in the cell culture supernatant were pelleted by centrifugation (60 min, 25000 g at 4° C.). To generate the standard curve, a sample of LAI-HIV with known titer was pelleted in the same run. […]
# Total viral RNA was reverse-transcribed into cDNA with gag gene-specific primers (25 pmol each), LM667 and GagR according to manufacturer's instructions (RT-PCR One Step kit—Invitrogen). Pre-amplified products were diluted in DNase-RNase free water, then subjected to quantitative real-time PCR on Rotor-Gene Q (Qiagen) in a reaction 25 pmol of the sense primer Lambda T, 25 pmol of the antisense primer AA55M, and 4 pmol of each hybridization probes (TIB MolBiol).
# Total viral RNA (17 μL) was first treated with 1 unit DNase I (Invitrogen) for 10 min at 25° C. followed by DNase I inactivation with 1 μL 25 mM EDTA for 10 min at 65° C. Total viral RNA was then reverse-transcribed into cDNA for quantitative PCR analysis. […]
# [3] = Hepatic microsomal stability, human; format: in vitro ADME; settings: 1 μM, 0.2-1 mg/ml microsomes, NADPH 1 mM
# Description: In vitro studies compared murine and human hepatic microsomes (150 donor mixed male/female pool).
smiles,measurement,setting,value
"CN(C)[C@H]1C[C@@]23CC[C@@]4(O2)C(=CC[C@]2(C)C(c5ccc6ccncc6c5)=CC[C@H]24)C=C3[C@@H](O)[C@@H]1O [dCA, didehydro-Cortistatin A]",virus rebound after treatment stopped,HIV-1 pNL43 [1],No virus rebound
same,maximum inhibition plateau in PBMCs,HIV-1 pNL43 [2],86%
same,pEC50,"HIV-1 pNL43 [2]; p24 ELISA, 5 days post infection, read-out: EC50, HIV-1 replication in primary cells (PBMCs)",> 9.00
same,viability of the cells,HIV; at the concentrations used,did not affect the viability
same,reduction of viral production,"HIV; day 6, in the presence of ARVs, no IL-2",99.7%
same,"T1/2 hepatic microsomes, Human",[3],60 min

# Reference: US9682994B2, “Inhibitors of retroviral replication” (The Scripps Research Institute, priority 2011, dated 2017)
